# Test results reported in patent publication US20100311736A1, “PYRIDOSULFONAMIDE DERIVATIVES AS P13 KINASE INHIBITORS” (GlaxoSMithKline LLC, priority 2007, published 2010).
# Like-named read-outs stand apart in the source and are kept apart here.
# Columns and labels:
# PI3Kα = molecular target: T1, PI3Kα (Homo sapiens, UniProt P42336); experiment: PI3K alpha enzyme inhibition (TR-FRET assay / Leadseeker SPA assay); assay type: biochemical; settings: in at least one experimental run; read-out: IC50 against PI3Kα
# T1 construct: His; made in house
# T1 sequence (P42336 whole entry): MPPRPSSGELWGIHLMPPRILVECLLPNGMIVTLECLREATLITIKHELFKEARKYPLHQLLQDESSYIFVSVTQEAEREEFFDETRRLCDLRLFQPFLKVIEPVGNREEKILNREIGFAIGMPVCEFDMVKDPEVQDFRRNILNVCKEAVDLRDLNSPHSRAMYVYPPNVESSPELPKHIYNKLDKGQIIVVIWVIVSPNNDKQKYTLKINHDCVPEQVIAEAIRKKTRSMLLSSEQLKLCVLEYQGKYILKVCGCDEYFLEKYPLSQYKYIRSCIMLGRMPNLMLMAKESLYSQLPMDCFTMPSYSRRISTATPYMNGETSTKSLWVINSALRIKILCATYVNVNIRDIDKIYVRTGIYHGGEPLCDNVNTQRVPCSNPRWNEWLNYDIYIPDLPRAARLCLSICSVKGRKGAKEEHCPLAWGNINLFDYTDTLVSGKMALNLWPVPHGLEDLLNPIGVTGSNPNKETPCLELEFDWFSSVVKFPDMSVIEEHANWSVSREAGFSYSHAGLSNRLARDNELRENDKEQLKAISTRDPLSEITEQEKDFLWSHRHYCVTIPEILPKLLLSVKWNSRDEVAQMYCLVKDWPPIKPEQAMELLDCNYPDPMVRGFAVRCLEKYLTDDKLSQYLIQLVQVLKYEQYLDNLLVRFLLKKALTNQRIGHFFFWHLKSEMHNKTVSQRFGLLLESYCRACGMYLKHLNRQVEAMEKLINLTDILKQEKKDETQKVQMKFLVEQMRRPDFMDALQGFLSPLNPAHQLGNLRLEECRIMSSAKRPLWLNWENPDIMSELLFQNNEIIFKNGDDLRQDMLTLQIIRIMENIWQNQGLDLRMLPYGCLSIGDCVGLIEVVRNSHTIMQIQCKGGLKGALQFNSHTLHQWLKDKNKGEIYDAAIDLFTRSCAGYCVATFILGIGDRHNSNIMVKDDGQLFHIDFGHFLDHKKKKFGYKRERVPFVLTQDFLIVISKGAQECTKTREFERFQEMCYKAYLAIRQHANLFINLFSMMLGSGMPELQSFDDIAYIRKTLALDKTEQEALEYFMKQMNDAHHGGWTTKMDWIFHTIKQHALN
# T1 sequence (P27986 whole entry partner): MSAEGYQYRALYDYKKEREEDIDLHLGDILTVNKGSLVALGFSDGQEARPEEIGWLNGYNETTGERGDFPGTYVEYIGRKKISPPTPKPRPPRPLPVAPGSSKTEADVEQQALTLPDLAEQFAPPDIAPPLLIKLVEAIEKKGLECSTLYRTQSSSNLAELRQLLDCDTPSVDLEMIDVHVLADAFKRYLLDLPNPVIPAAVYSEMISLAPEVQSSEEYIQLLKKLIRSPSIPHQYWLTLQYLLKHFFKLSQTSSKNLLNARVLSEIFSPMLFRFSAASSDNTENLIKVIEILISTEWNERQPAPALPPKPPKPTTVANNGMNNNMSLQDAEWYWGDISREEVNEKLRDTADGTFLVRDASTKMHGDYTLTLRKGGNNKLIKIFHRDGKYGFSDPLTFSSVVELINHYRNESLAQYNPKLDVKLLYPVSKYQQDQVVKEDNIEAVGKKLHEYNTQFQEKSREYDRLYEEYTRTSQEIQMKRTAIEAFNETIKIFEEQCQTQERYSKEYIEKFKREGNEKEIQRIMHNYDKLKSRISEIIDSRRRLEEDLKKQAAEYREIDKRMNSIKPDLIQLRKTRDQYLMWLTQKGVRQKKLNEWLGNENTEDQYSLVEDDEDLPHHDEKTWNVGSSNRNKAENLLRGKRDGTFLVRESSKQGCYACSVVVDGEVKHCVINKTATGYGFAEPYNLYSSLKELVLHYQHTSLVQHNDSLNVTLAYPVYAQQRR
# Protocol: Compounds of the present invention were tested according to the following assays and found as inhibitors of PI3 kinases, particularly PI3Kα. The exemplified compounds were tested and found active against PI3Kα. The IC50's ranged from about 1 nM to 10 μM.
# The PI3-Kinase assay has been developed and optimized from a kit produced by Upstate (Millipore). Briefly, this kit contains a biotinylated PIP3 which forms a HTRF (homogeneous time-resolved fluorescence energy transfer) complex when mixed with a Europium labeled anti-GST monoclonal antibody, a GST tagged pleckstrin homology (PH) domain, and Streptavidin-Allophycocyanin (APC). The unlabeled PIP3 produced by PI 3-Kinase activity displaces biotin-PIP3 from the complex resulting in a loss of energy transfer and thus a decrease in signal. Millipore, PI 3-Kinase (human) HTRF™ Assay, technical document associated with catalog #33-017
# Compounds are serially diluted (3-fold in 100% DMSO) across a polypropylene 120 μL mother plate from column 1 to column 12 and column 13 to column 24, leaving columns 6 and 18 containing only DMSO to yield 11 concentrations for each test compound. Once titrations are made, 0.1 μL is transferred to the assay plates (Greiner 784075). This assay plate contains three controls: column 6 with DMSO, and column 18 with alternating 20 μM wortmannin and 40 μM PIP3. […] The PIP3 control is dispensed into the plate manually via a matrix pipettor, 1 μL of 200 μM PIP3 in 1× Reaction buffer to wells 18 B, D, F, H, J, L, N, P.
# The PI3-Kinase assay has been developed and optimized from a kit produced by Upstate (Millipore). The assay kit (cat: 33-017) contains seven reagents: 1) 4× Reaction Buffer, 2) PIP2 (1 mM), 3) Stop A, 4) Stop B, 5) Detection Mix A, 6) Detection Mix B, 7) Detection Mix C. In addition the following items were obtained or purchased, PI3Kinase (prepared in-house), 4× PI3K Detection Buffer (Millipore), dithiothreitol (Sigma, D-5545), Adenosine-5′-triphosphate (ATP, Sigma, A-6419), PIP3 (1,2-dioctanoyl-sn-glycero-3-[phosphoinositil-3,4,5-triphosphate]tetraammonium salt (Avanti polar lipids, 850186P), DMSO (Sigma, 472301), Wortmannin (Sigma, W-1628).
# Prepare 1× PI3Kinase Reaction Buffer by diluting stock 1:4 with de-ionized water, freshly prepared DTT is added at a final concentration of 5 mM on the day of use. Enzyme addition and compound preincubation is initiated by the addition of 2.5 μL of 2× enzyme solution, PI3K alpha in 1× reaction buffer, to all wells using a Multidrop Combi. Plates are incubated at room temperature for 15 minutes. Substrate addition and reaction initiation is completed by the addition of 2.5 μL of 2× substrate solution, PIP2 and ATP in 1× reaction buffer, to all wells using a Multidrop Combi. […] Incubate one hour, evaluate the HTRF signal on the Envision plate reader. […]
# CK2 protein kinase = CK2 protein kinase (Homo sapiens, UniProt P68400); settings: background statement; cited from earlier work
# Chain of CK2 protein kinase (P68400 whole entry): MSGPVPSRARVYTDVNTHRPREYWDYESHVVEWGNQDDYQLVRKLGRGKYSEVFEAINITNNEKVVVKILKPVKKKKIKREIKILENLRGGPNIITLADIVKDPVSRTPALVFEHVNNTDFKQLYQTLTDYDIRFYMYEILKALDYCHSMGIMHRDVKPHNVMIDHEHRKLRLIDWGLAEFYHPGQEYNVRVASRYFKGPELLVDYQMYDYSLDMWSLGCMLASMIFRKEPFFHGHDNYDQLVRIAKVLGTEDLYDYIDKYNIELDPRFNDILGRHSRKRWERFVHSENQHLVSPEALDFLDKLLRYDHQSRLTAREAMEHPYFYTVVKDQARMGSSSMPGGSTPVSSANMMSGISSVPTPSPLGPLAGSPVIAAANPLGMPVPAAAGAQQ
# Class I PI3-kinases = settings: cited from earlier work
IC50 (PI3Kα),SMILES,other results
13 nM,"O=S(=O)(Nc1cc(-c2ccc3nccn3c2)cnc1Cl)c1ccccc1 [Example 35, N-(2-chloro-5-imidazo[1,2-a]pyridin-6-yl-3-pyridinyl)benzenesulfonamide]",–
–,O=c1cc(N2CCOCC2)oc2c(-c3ccccc3)cccc12 [LY294002],"IC50 (CK2 protein kinase): 5000 to 10000 nM; IC50 (Class I PI3-kinases; Fruman et al. 1998, read-out: IC50 against each of these PI3-kinases): 15000 to 20000 nM"
631 nM,"O=S(=O)(Nc1cc(-c2ccc3ccccc3c2)cnc1Cl)c1ccccc1 [Example 27, N-[2-chloro-5-(2-naphthalenyl)-3-pyridinyl]benzenesulfonamide]",–
100 nM,"CNc1ncc(-c2cnc(Cl)c(NS(=O)(=O)c3ccccc3)c2)cn1 [Example 29, N-{2-chloro-5-[2-(methylamino)-5-pyrimidinyl]-3-pyridinyl}benzenesulfonamide]",–
316 nM,"O=S(=O)(Nc1cc(-c2cn[nH]c2)cnc1Cl)c1ccccc1 [Example 22, N-[2-chloro-5-(1H-pyrazol-4-yl)-3-pyridinyl]benzenesulfonamide]",–
–,COC[C@H]1OC(=O)c2coc3c2[C@@]1(C)C1=C(C3=O)[C@@H]2CCC(=O)[C@@]2(C)C[C@H]1OC(C)=O [wortmannin],"IC50 (Class I PI3-kinases; wortmannin, background statement, read-out: IC50 against each of the various Class I PI3-kinases): 1 to 10 nM"
